Data on 27 molecules can be found in patent US8846947B2, “Benzimidazoles and related analogs as sirtuin modulators” (GlaxoSmithKline LLC, priority 2008, dated 2014).

Structures are written as SMILES. Counter-ions that a name gives are not always drawn. Like-named read-outs stand apart in the source and are kept apart here.

The target of this assay is T1, SIRT1 (Homo sapiens, UniProt Q96EB6).
T1 sequence (Q96EB6 1-747): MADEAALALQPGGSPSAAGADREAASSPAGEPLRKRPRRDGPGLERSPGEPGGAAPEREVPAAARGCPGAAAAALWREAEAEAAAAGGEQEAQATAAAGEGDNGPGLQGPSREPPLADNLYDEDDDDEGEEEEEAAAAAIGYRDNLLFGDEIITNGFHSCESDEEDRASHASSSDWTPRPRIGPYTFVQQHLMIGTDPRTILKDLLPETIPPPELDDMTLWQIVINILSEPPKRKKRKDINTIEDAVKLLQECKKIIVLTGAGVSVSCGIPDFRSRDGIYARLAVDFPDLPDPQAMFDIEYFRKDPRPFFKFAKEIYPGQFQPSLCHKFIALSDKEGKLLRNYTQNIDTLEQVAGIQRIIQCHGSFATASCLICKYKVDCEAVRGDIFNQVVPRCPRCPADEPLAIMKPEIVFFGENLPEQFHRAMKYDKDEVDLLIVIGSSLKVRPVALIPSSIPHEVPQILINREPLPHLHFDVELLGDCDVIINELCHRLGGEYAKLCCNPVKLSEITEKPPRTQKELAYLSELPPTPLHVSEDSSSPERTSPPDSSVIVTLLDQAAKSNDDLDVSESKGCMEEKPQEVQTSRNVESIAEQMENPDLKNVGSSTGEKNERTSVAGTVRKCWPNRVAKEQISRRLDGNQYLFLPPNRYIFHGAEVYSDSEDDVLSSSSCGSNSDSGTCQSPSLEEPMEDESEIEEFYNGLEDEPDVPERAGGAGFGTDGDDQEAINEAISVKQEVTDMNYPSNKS
Briefly: Mass spectrometry based SIRT1 deacetylase activation assay (acetylated p53-derived peptide substrate). Format: biochemical. The source says: A mass spectrometry based assay was used to identify modulators of SIRT1 activity. The mass spectrometry based assay utilizes a peptide having 20 amino acid residues as follows: Ac-EE-K(biotin)-GQSTSSHSK(Ac)NleSTEG-K(5TMR)-EE-NH2 (SEQ ID NO: 1) wherein K(Ac) is an acetylated lysine residue and Nle is a norleucine. The peptide is labeled with the fluorophore 5TMR (excitation 540 nm/emission 580 nm) at the C-terminus. The sequence of the peptide substrate is based on p53 with several modifications. In addition, the methionine residue naturally present in the sequence was replaced with the norleucine because the methionine may be susceptible to oxidation during synthesis and purification.
The mass spectrometry assay is conducted as follows: 0.5 μM peptide substrate and 120 μM βNAD^+ is incubated with 10 nM SIRT1 for 25 minutes at 25° C. in a reaction buffer (50 mM Tris-acetate pH 8, 137 mM NaCl, 2.7 mM KCl, 1 mM MgCl2, 5 mM DTT, 0.05% BSA). Test compounds may be added to the reaction as described above. […] After the 25 minute incubation with SIRT1, 10 μL of 10% formic acid is added to stop the reaction. Reactions are sealed and frozen for later mass spec analysis. Determination of the mass of the substrate peptide allows for precise determination of the degree of acetylation (i.e. starting material) as compared to deacetylated peptide (product).
A control for inhibition of sirtuin activity is conducted by adding 1 μL of 500 mM nicotinamide as a negative control at the start of the reaction (e.g., permits determination of maximum sirtuin inhibition). A control for activation of sirtuin activity is conducted using 10 nM of sirtuin protein, with 1 μL of DMSO in place of compound, to determine the amount of deacetylation of the substrate at a given timepoint within the linear range of the assay. This timepoint is the same as that used for test compounds and, within the linear range, the endpoint represents a change in velocity.
For the above assay, SIRT1 protein was expressed and purified as follows. […] The protein was expressed by induction with 1 mM IPTG as an N-terminal His-tag fusion protein at 18° C. overnight and harvested at 30,000×g. Cells were lysed with lysozyme in lysis buffer (50 mM Tris-HCl, 2 mM Tris[2-carboxyethyl]phosphine (TCEP), 10 μM ZnCl2, 200 mM NaCl) and further treated with sonication for 10 min for complete lysis. The protein was purified over a Ni-NTA column (Amersham) and fractions containing pure protein were pooled, concentrated and run over a sizing column (Sephadex S200 26/60 global). The peak containing soluble protein was collected and run on an Ion-exchange column (MonoQ). Gradient elution (200 mM-500 mM NaCl) yielded pure protein. This protein was concentrated and dialyzed against dialysis buffer (20 mM Tris-HCl, 2 mM TCEP) overnight. The protein was aliquoted and frozen at −80° C. until further use.
Sirtuin modulating compounds that activated SIRT1 were identified using the assay described above and are shown below in Table 1. The EC1.5 values for the activating compounds are represented by A (EC1.5<1.0 uM), B (EC1.5 1-25 uM), C (EC1.5 >25 uM). The percent maximum fold activation is represented by A (Fold activation >200%) or B (Fold Activation <200%).

The mark [1] stands for this setting: 0.5 μM peptide substrate, 120 μM βNAD+, 10 nM SIRT1, 25 minutes at 25° C.
Setting [2] is: 0.5 μM peptide substrate, 120 μM βNAD+, 10 nM SIRT1, 25 min at 25° C.
[3] abbreviates: 0.5 μM peptide substrate, 120 μM βNAD+, 10 nM SIRT1, 25 min at 25° C., read-out: EC1.5.

Regarding `O=C(Nc1nccs1)c1cccc2[nH]c(-c3ccc(N4CCNCC4)nc3)nc12` [Compound 251, 2-(6-(piperazin-1-yl)pyridin-3-yl)-N-(thiazol-2-yl)-1H-benzo[d]imidazole-4-carboxamide hydrochloride], the EC1.5 result is “A (EC1.5<1.0 uM)” and the “Fold Act. (percent maximum fold activation)” value is on record as “A (Fold activation >200%)”.

Consider `O=C(Nc1ccc(CN2CCCC2)nc1)c1cccc2[nH]c(-c3ccc(Cl)cc3C(F)(F)F)nc12` [Compound 685], for which, under setting [1], the EC1.5 result is on record as “A (EC1.5<1.0 uM)” and the “Fold Act. (percent maximum fold activation)” value is “A (Fold activation >200%)”.

As for `O=C(Nc1ccc(Cl)cn1)c1cccc2[nH]c(-c3cccc(C(F)(F)F)c3)nc12` [Compound 285], the EC1.5 result was “B (EC1.5 1-25 uM)” and the “Fold Act. (percent maximum fold activation)” value was “A (Fold activation >200%)”.

With `O=C(Nc1cccc2[nH]c(-c3cccc(N4CCOCC4)c3)nc12)c1cscn1` [Compound 391], the EC1.5 result is recorded as “B (EC1.5 1-25 uM)” and the “Fold Act. (percent maximum fold activation)” value was “A (Fold activation >200%)”.

As for `O=C(Nc1nc(CN2CCOCC2)cs1)c1cccc2[nH]c(-c3ccc(F)cc3C(F)F)nc12` [Compound 846], under setting [1], the EC1.5 result is “A (EC1.5<1.0 uM)” and the “Fold Act. (percent maximum fold activation)” value is listed as “A (Fold activation >200%)”.

As for `O=C(Nc1nccs1)c1cccc2[nH]c(-c3ccc(OCCN4CCOCC4)cc3C(F)F)nc12` [Compound 722], under setting [1], the EC1.5 entry is recorded as “A (EC1.5<1.0 uM)” and the “Fold Act. (percent maximum fold activation)” value is “A (Fold activation >200%)”.

For `O=C(Nc1ccncc1)c1cccc2[nH]c(-c3cc(F)ccc3C(F)(F)F)nc12` [Compound 316], the EC1.5 entry is “A (EC1.5<1.0 uM)” and the “Fold Act. (percent maximum fold activation)” value is listed as “A (Fold activation >200%)”.

For the molecule `O=C(Nc1nccs1)c1cccc2[nH]c(-c3ccc(F)c(Cl)c3)nc12` [Compound 235], the EC1.5 entry was “B (EC1.5 1-25 uM)” and the “Fold Act. (percent maximum fold activation)” value is on record as “A (Fold activation >200%)”.

For the molecule `Cc1cnc(NC(=O)c2cc(F)cc3nc(-c4ccc(Cl)cc4C(F)F)[nH]c23)s1` [Compound 822], under setting [1], the EC1.5 result is recorded as “A (EC1.5<1.0 uM)” and the “Fold Act. (percent maximum fold activation)” value was “A (Fold activation >200%)”.

In the case of `O=C(Nc1cccc2[nH]c(-c3cc(F)ccc3C(F)(F)F)nc12)c1cscn1` [Compound 384], the EC1.5 result was “B (EC1.5 1-25 uM)” and the “Fold Act. (percent maximum fold activation)” value is given as “A (Fold activation >200%)”.

With `O=C(Nc1nccs1)c1cccc2[nH]c(-c3ccccc3-c3ccccc3)nc12` [Compound 255], the EC1.5 entry is “B (EC1.5 1-25 uM)” and the “Fold Act. (percent maximum fold activation)” value was “A (Fold activation >200%)”.

On to `O=C(Nc1nccs1)c1cccc2[nH]c(-c3ccccc3CN3CCOCC3)nc12` [Compound 267], for which the EC1.5 result is “B (EC1.5 1-25 uM)” and the “Fold Act. (percent maximum fold activation)” value is reported as “A (Fold activation >200%)”.

As to `O=C(NCc1cccnc1)c1cccc2[nH]c(-c3cccc(C(F)(F)F)c3)nc12` [Compound 270], the EC1.5 result is “C (EC1.5 >25 uM)” and the “Fold Act. (percent maximum fold activation)” value is on record as “B (Fold Activation <200%)”.

In the case of `C[C@@H]1CN(c2ccc(-c3nc4c(C(=O)Nc5nccs5)cccc4[nH]3)c(C(F)(F)F)c2)C[C@H](C)O1` [Compound 603], under setting [1], the EC1.5 entry is recorded as “A (EC1.5<1.0 uM)” and the “Fold Act. (percent maximum fold activation)” value is listed as “A (Fold activation >200%)”.

Regarding `O=C(Nc1cccc2[nH]c(-c3ccccc3C(F)(F)F)nc12)c1cccnc1` [Compound 365], the EC1.5 entry is listed as “B (EC1.5 1-25 uM)” and the “Fold Act. (percent maximum fold activation)” value is given as “A (Fold activation >200%)”.

Consider `C[C@@H]1CN(CCOc2ccccc2-c2nc3c(C(=O)Nc4ccccn4)cccc3[nH]2)C[C@H](C)O1` [Compound 610], for which, under setting [1], the EC1.5 entry is “B (EC1.5 1-25 uM)” and the “Fold Act. (percent maximum fold activation)” value is “A (Fold activation >200%)”.

Take `O=C(Nc1nccs1)c1cccc2[nH]c(-c3cc(CN4CCCC4)ccc3C(F)(F)F)nc12` [Compound 871, 2-(5-(pyrrolidin-1-ylmethyl)-2-(trifluoromethyl)phenyl)-N-(thiazol-2-yl)-1H-benzo[d]imidazole-4-carboxamide]: under setting [1], the EC1.5 entry is “B (EC1.5 1-25 uM)” and the “Fold Act. (percent maximum fold activation)” value is given as “A (Fold activation >200%)”.

In the case of `O=C(Nc1nccs1)c1cncc2[nH]c(-c3ccc(OC[C@H](O)CO)cc3C(F)(F)F)nc12` [Compound 761], under setting [1], the EC1.5 entry is “A (EC1.5<1.0 uM)” and the “Fold Act. (percent maximum fold activation)” value is “A (Fold activation >200%)”.

Turning to `O=C(Nc1ccc(CN2CCOCC2)nc1)c1cccc2[nH]c(-c3cc(F)ccc3C(F)(F)F)nc12` [Compound 686, 2-(5-fluoro-2-(trifluoromethyl)phenyl)-N-(6-(morpholinomethyl)pyridin-3-yl)-1H-benzo[d]imidazole-4-carboxamide], under setting [1], the EC1.5 result was “A (EC1.5<1.0 uM)” and the “Fold Act. (percent maximum fold activation)” value is given as “A (Fold activation >200%)”.

In the case of `O=C(Nc1cccc(OC2CCNCC2)c1)c1cccc2[nH]c(-c3ccccc3C(F)(F)F)nc12` [Compound 597], the “Fold Act. (percent maximum fold activation)” value under setting [2] is “A (Fold activation >200%)”. The EC1.5 under setting [3] was under 1000 nM.

As for `O=C(Nc1nccs1)c1cccc2[nH]c(-c3cc(F)cc(C(F)(F)F)c3)nc12` [Compound 210], the EC1.5 result was “B (EC1.5 1-25 uM)” and the “Fold Act. (percent maximum fold activation)” value is “B (Fold Activation <200%)”.

On to `O=C(Nc1nccs1)c1cccc2[nH]c(-c3cn4ccsc4n3)nc12` [Compound 400], for which, under setting [2], the “Fold Act. (percent maximum fold activation)” value was “A (Fold activation >200%)”. Moreover, the EC1.5 under setting [3] was under 1000 nM.

In the case of `O=C(Nc1nccs1)c1cccc2nc(-c3ccc(N4CCCC4)cc3C(F)F)[nH]c12` [Compound 764], under setting [1], the EC1.5 entry is given as “A (EC1.5<1.0 uM)” and the “Fold Act. (percent maximum fold activation)” value was “A (Fold activation >200%)”.

For the molecule `O=C(Nc1cccnn1)c1cccc2[nH]c(-c3ccc(F)cc3C(F)(F)F)nc12` [Compound 465], the “Fold Act. (percent maximum fold activation)” value under setting [2] is reported as “A (Fold activation >200%)”. For the same molecule, under setting [3], the EC1.5 was under 1000 nM.

For the molecule `CCOC(=O)c1csc(NC(=O)c2cccc3[nH]c(-c4cccc(C(F)(F)F)c4)nc23)n1` [Compound 308], the EC1.5 entry is “B (EC1.5 1-25 uM)” and the “Fold Act. (percent maximum fold activation)” value is reported as “A (Fold activation >200%)”.

As to `O=C(Nc1nccs1)c1cccc2[nH]c(-c3ccc(F)cc3C(F)(F)F)nc12` [Compound 263], the EC1.5 entry is recorded as “A (EC1.5<1.0 uM)” and the “Fold Act. (percent maximum fold activation)” value was “A (Fold activation >200%)”.

For the molecule `O=C(Nc1nccs1)c1cccc2[nH]c(-c3cccc(Oc4ccccc4)c3)nc12` [Compound 224], the EC1.5 result was “B (EC1.5 1-25 uM)” and the “Fold Act. (percent maximum fold activation)” value is recorded as “A (Fold activation >200%)”.
